Values of other authors in patent publication US20160186266A1, “MOLECULAR PROFILING FOR PERSONALIZED MEDICINE” (CARIS LIFE SCIENCES, INC., priority 2009, published 2016).

Tests used:
[1] = test system: platelet-derived growth factor receptor (PDGFR)
c-Kit = c-Kit (Homo sapiens, UniProt P10721)
Chain of c-Kit (P10721 26-976): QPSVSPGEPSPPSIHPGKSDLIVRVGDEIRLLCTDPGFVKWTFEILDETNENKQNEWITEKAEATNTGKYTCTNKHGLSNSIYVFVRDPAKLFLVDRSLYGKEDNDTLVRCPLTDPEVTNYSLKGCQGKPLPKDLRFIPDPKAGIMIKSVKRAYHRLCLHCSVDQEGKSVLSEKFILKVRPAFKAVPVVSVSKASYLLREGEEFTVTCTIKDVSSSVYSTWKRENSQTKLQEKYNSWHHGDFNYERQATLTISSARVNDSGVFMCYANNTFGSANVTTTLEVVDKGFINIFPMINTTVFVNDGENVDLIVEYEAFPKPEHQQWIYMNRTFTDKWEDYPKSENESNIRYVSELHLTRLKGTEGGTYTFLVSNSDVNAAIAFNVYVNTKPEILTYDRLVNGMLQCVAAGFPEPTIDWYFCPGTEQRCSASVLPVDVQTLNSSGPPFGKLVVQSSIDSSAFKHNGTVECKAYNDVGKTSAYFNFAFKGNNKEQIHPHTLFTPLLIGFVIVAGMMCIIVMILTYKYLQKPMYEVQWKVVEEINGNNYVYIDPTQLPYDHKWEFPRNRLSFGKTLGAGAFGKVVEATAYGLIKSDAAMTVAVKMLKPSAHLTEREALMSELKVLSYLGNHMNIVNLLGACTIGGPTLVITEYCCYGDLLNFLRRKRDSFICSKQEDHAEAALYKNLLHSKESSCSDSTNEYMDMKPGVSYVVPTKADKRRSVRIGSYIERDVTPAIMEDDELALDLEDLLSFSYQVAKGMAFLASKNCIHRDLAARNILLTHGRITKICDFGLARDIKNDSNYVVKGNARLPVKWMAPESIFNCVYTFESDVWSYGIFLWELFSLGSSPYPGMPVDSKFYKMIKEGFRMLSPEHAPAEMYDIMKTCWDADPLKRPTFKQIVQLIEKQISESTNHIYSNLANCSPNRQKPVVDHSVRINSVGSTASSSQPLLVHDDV

Cc1ccc(NC(=O)c2ccc(CN3CCN(C)CC3)cc2)cc1Nc1nccc(-c2cccnc2)n1 [Imatinib]
effect on kinase activity [1]: block the activity | effect on kinase activity (c-Kit): block the activity
